One may read the inhibition as the drop in the measured response relative to a control, in per cent. As a reminder, the Ki is a measure of affinity in units of concentration, obtained from inhibition or displacement.

Test [1] relates to Arachidonic Acid-Induced Paw Edema. Briefly: arachidonic acid-induced paw edema. The class given is in vivo. Particulars: Mus musculus, po, compared to vehicle treated controls (peanut oil orally), N=5 mice/group, read-out: percent inhibition of paw edema; for inhibition at 0.05 mg/kg: dose 0.050 mg/kg; for inhibition at 0.1 mg/kg: dose 0.100 mg/kg; for inhibition at 0.25 mg/kg: dose 0.250 mg/kg. As to the method:
The compounds were tested by a method reported by W. Calhoun et al., Agents and Actions, 21, 306-a309 (1987). Water was substituted for mercury as the displacement medium. PAF (1.0 µg) or arachidonic acid (1.0mg) dissolved in 50 µl of 5% ethanol in saline was injected s.c. into the plantar surface of the right hind paw of female mice (20-25g). The mice were under ether anesthesia during this procedure. The volume of the right foot was measured to the level of the lateral malleous by water displacement before treatment and 15 min after PAF injection or 30 min after arachidonic injection. The change in paw volume was calculated for each mouse.

A further test has as its system mice. Briefly: standard hot plate test (analgesia). The class given is in vivo. Particulars: Mus musculus; in mice, intravenous injection in the tail vein; read-out: Analgesia ED=50. As for the experimental part: Analgesia. The novel compounds were tested in the standard hot plate test.
Represenatative results are presented in Table I. The compounds were dissolved in a detergent (Emulphor): ethanol: saline (5:5:90) and administered by intravenous injection in the tail vein with an injection volume of 0.1 ml/10g of body weight.

In test [2] the test system is emesia caused by an antieoplastic drug (cisplatin). The experiment in a line: antiemetic activity against cisplatin-caused emesis. The class given is in vivo. The following applies: Columbidae, sc, in pigeons, administered subcutaneously, read-out: Reduction of vomiting(50%). As for the experimental part:
The compounds also tested in pigeons against emesia caused by an antieoplastic drug (cisplatin) according to the method described in Feigenbaum et al., Eur. J. Pharmacol. 169, 159-165 (1989). Representative results are presented in Table I. The compounds were dissolved as described above for the tests on analgesia, and administered subcutaneously. The injection volume was 1.0 ml/kg body weight.

The subject of another test is mouse vas deferens. The experiment in a line: electrically-evoked twitch response of the mouse vas deferens. As to the method: R.G. Pertwee, L.A. Stevenson, D.B. Elrick, R. Mechoulam, A.D. Corbett, Brit. J. Pharmacol. 105, 980 (1992). […] The structure of anandamide was established by mass spectrometry (MS) and nuclear magnetic resonance (NMR) spectroscopy. Additional data were obtained from the GC-MS and CID measurements of the trimethylsilyl (TMS) derivative of the material.
Fig. 2. Inhibition of vas deferens twitch response by natural anandamide. Vasa deferentia obtained from MFI mice were mounted in 4 ml siliconized organ baths under an initial tension of 0.5 g. The baths contained Mg++ -Free Krebs solution which was kept at 37 C and bubbled with 95% 02 and 5% CO2 . Tissues were stimulated supramaximally with 0.5 s trains of 3 pulses (train frequency 0.1 Hz: pulse duration 0.5 ms). Isometric contractions were recorded. Natural anandamide was dispersed in Tween 80 and saline (see ref. 12) and added in volumes of 40 µl.

A further test has as its target T1, cannabinoid receptor (Rattus norvegicus, UniProt P20272).
T1 construct: Synaptosomal membranes were prepared from rat whole brain-minus brainstem; from tissue; host or cells: rat whole brain minus brainstem, synaptosomal membranes (Sprague-Dawley males)
The experiment in a line: centrifugation radioligand binding assay with [3H]HU-243 on synaptosomal membranes.

Test [3] has as its system intraocular pressure (I.O.P.). Briefly: antiglaucoma activity in stable glaucoma induced by chymotrypsin injection into the eye. The class given is in vivo. Particulars: 0.01% aq. solution, rabbits. As to the method: The compounds were also tested for antiglaucoma activity in rabbits with stable glaucoma induced by δ-chymotrypsin injection into the eye as described in detail in R. Mechoulam et al., On the therapeutic possiblities of some cannabinoids in "The Therapeutic Potential of Marihuana" (eds S. Cohen. R.C. Stillman) Plenum Press, New York, 1975. pp. 35-48). The compounds were compared in activity to that of pilocarpine (a standard antiglaucoma drug) which at 0.01% aq. solution reduces the intraocular pressure (I.O.P.) and delays recovery to half time of the original I.O.P. about 30 hours. […] The compounds were dissolved as described for analgesia and further diluted with saline to obtain the required concentration.

Each structure is given as a SMILES string.

T1 sequence (P20272 whole entry): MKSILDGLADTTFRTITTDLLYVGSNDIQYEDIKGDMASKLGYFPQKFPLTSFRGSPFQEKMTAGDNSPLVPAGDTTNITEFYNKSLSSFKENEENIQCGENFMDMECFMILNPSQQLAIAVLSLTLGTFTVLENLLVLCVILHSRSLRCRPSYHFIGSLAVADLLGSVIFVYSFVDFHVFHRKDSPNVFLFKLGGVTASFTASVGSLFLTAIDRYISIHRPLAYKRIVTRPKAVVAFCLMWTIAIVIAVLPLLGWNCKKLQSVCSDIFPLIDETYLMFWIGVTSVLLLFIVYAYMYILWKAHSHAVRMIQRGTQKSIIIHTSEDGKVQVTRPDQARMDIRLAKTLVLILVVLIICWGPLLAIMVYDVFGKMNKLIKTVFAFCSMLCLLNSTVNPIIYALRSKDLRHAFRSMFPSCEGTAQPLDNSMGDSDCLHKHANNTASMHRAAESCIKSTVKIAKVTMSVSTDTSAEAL
Description for cannabinoid receptor: To screen for endogenous cannabinoid compounds there were tested brain-derived fractions using a centrifugation radioligand binding assay. […] Particular attention was paid to the binding of [^3H]HU-243 to the siliconized polypropylene microfuge tubes in which the assay was conducted. Normally, about 15-20% of the added [^3H]HU-243 adheres to the microfuge tube, with the amount increasing slightly when unlabelled cannabinoid drugs displace the radioligand from the receptor.
Synaptosomal membranes were prepared from rat whole brain-minus brainstem (Sprague-Dawley males, 430-470g). [^3H]HU-243 (45-55 pM) was incubated with synaptosomal membranes (protein content 3-4 µg) for 90 min at 30°C with either the indicated concentrations of anandamide or the vehicle alone (fatty acid-free bovine serum albumin, final concentration-0.5 mg/ml). Bound and free radioligand were separated by centrifugation (see ref. 8 for full details of the assay). The data were normalized to 100% of specific binding, which was determined with 50 nM unlabeled HU-243. The amount of specific binding was 77-82% of the total radioactivity bound to the membranes. Data points (□, ▲) represent the average of triplicate determinations from two independent experiments.

Take `CC/C=C\C/C=C\C/C=C\C/C=C\C/C=C\C/C=C\CCC(=O)NCCO` [4,7,10,13,16,19-docosahexaenylethanolamide]: in test [1], the inhibition at 0.05 mg/kg came out at 52.4%, the inhibition at 0.1 mg/kg stood at 66.8% and the inhibition at 0.25 mg/kg worked out at 72%. In the test on mice, the ED50 was determined as 6.1 mg/kg. Also, in test [2], the ED50 is 4.8 mg/kg.

With `CCCCC/C=C\C/C=C\C/C=C\C/C=C\CCCC(=O)NCCO` [Arachidonylethanolamide, 5,8,11,14-icosatetraenamide, (N,-2-hydroxyethyl)-(all-Z)], the inhibition at 0.01 mg/kg in test [1] (dose 0.010 mg/kg) came to 56.2%. Besides, in test [1] (dose 0.025 mg/kg), the inhibition at 0.025 mg/kg came out at 58.4%. Besides, in test [1], the inhibition at 0.05 mg/kg worked out at 74.2%, the inhibition at 0.1 mg/kg was 98% and the inhibition at 0.25 mg/kg came out at 100%. Also, the ED50 with mice came to 4.2 mg/kg. For the same compound, the ED50 in test [2] stood at 2.5 mg/kg. The “inhibition of the twitch response” value with mouse vas deferens (electrically-evoked, mouse vas deferens) is “concentration-dependent inhibition”. In addition, in the test with mouse vas deferens (naloxone 300 nM), the “reversal of the inhibition of the twitch response by naloxone” value is on record as “not reversed”.

At cannabinoid receptor (synthetic compounds, prepared and tested), `CCCCC/C=C\C/C=C\C/C=C\C/C=C\CCCC(=O)NCC(C)(C)O` [arachidonoyl-β-dimethylethanolamide] yielded a Ki of 162 ± 34.1 nM.

For the compound `CCCCC/C=C\C/C=C\C/C=C\C/C=C\CCCCCC(=O)NCCO` [cis-7,10,13,16-docosatetraenoylethanolamide], on cannabinoid receptor (compounds isolated from the brain and synthesized), the Ki stood at 34.4 ± 3.2 nM.

Turning to `CC[C@@H]1C(=O)OC[C@@H]1Cc1cncn1C` [pilocarpine], the “delays recovery to half time of the original I.O.P.” value in test [3] is “about 30 hours”.

The values above are taken from patent EP0670826B1, “FATTY ACID DERIVATIVES AND PHARMACEUTICAL COMPOSITIONS CONTAINING THEM” (YISSUM RESEARCH DEVELOPMENT COMPANY OF THE HEBREW …, priority 1992, dated 1994).
